In patent US20240053346A1, “FLUORESCENT DYE AND METHOD FOR DETECTING TUMOR CELLS” (NATIONAL UNIVERSITY CORPORATION EHIME UNIVERSITY, priority 2020, published 2024):
Read-outs that look alike come from different tables or passages of the source.

Tests used:
[1] = test system: extramammary Paget's disease lesion tissue; assay: Test Example 3: staining with various SC compounds, two-photon microscopy; conditions: cleared Paget's disease lesion tissue; for imaging performance for fluorescence observation (rank): judged by fluorescence intensity and contrast of staining
Protocol: (§1) The staining solution of Test Examples 1 and 2 was prepared by dissolving PK in DMSO at 1 mg/mL. Each of staining solutions of Test Example 3 and Test Example 4 was a DMSO solution containing 1 mM of an SC compound, and was diluted 100 times for use of staining.
(§2) As the skin normal part tissue, the extramammary Paget's disease lesion tissue, and the melanoma lesion tissue used in Test Examples, whole tissue sections of the tissues obtained by excision were used. A dermatologist has confirmed in advance the identification of each tissue. Also, a normal part tissue and a tumor tissue of the rectum were also prepared by whole-sectioning of the tissues obtained by excision, and a specialist has confirmed the identification of each tissue. The collection and use of the tumor tissues were approved by the Clinical Research Ethics Review Board at Ehime University Hospital (No. 1802009) and were conducted according to its study protocol.
(§3) For microscopy, a two-photon microscope AIR MP+(NIKON) was used. In the measurement, a 960 nm laser light source and a 495 nm filter were used for PK, and a 561 nm filter was used for PI. Scanning was performed to a depth of 100 μm of the sample. The three-dimensional reconstructed image is obtained by processing the obtained data with the software included.
(§4) Normal part tissue of the skin and extramammary Paget's disease lesion tissue cleared by LUCID method in the same manner as in Test Example 2 were stained with a staining solution containing PK, PC, Nile Red, or POLARIC. Each stained tissue section was observed according to the method of two-photon microscopy of Test Example 1. The images were produced by coloring a fluorescent wavelength of 492 nm or less in cyan, 500 to 550 nm in green, 560 to 593 nm in yellow, and 593 nm or more in red. Brightness and contrast of the illustrated images were appropriately corrected.

[2] = test system: melanoma lesion tissue of the skin; assay: as above; conditions: for imaging performance for fluorescence observation (rank): cleared melanoma lesion tissue
Protocol: as §1, §2, §3, §4
Melanoma lesion tissue of the skin cleared by the same method were similarly stained and observed with a two-photon microscope.

[3] = test system: well-differentiated adenocarcinoma lesion tissue of the rectum; assay: Test Example 4: PK and Hoechst staining of rectum, two-photon microscopy; conditions: cleared by LUCID method, co-stained with Hoechst
Protocol: as §1, §2
as §3, with “included. […]” for “included.”

[4] = test system: normal rectal mucosal epithelium (columnar epithelium); assay: as above; conditions: cleared by LUCID method, co-stained with Hoechst
Protocol: The staining solution of Test Examples 1 and 2 was prepared by dissolving PK in DMSO at 1 mg/mL. […]
as §2, §3
The normal part tissue and the well-differentiated adenocarcinoma lesion tissue of the rectum cleared by LUCID method in the same manner as in Test Example 2 were stained with PK and Hoechst. […]

[5] = test system: extramammary Paget's disease lesion tissue, tumor cells (Paget cells); assay: Test Example 1: PK staining of thin sliced section, two-photon microscopy
Protocol: as §1, §2
The extramammary Paget's disease lesion tissue and the normal part tissue were embedded in paraffin and then cut out to prepare tissue sections. The preparation of the sections (thickness: 5 μm) was performed by the procedure usually performed in histopathological examination. For staining with the PK staining solution, deparaffinization was performed by a conventional method, and then staining was performed by immersion in the PK staining solution at room temperature for several days to one week. In practice, the tissues were sufficiently stained by immersion in the PK staining solution at room temperature for 2 to 3 days.
as §3

[6] = test system: malignant melanoma lesion tissue (melanoma cells); assay: Test Example 2: PK staining of cleared three-dimensional tissue, two-photon microscopy; conditions: cleared tissue 100 μm thick, LUCID method, 495 nm
Protocol: as §1, §2, §3
(§5) Derived extramammary Paget's disease lesion tissue having a thickness of 500 μm and malignant melanoma lesion tissue having a thickness of 100 μm were subjected to a clearing treatment without being subjected to fixation and thinly slicing, and then stained with PK and propidium iodide (PI). Clearing treatment was performed by using LUCID method, according to the procedure described in Sawada K, Kawakami R, Shigemoto R, and Nemoto T. Eur. J. Neurosci., 2018, Vol. 47, No. 9, 1033-1042. The cleared tissue was stained with a PK staining as in Test Example 1. PI staining was performed by a method usually performed in tissue staining. As conditions for microscopy, the same conditions as in Test Example 1 were used for detection of PK signals.

[7] = test system: extramammary Paget's disease lesion tissue (Paget cells); assay: as above
Protocol: as §1, §2, §3, §5

[8] = cited from earlier work
[9] = Measurement of photophysical properties of PC in organic solvent and phosphate buffer (absorption spectrum, fluorescence spectrum, fluorescence quantum yield); type: physicochemical; conditions: 20 mM phosphate buffer (pH 7.4) at 25° C.
[10] = 5 μm paraffin section, 960 nm laser, 495 nm filter

CCN(CC)c1ccc2nc3c4ccccc4c(=O)cc-3oc2c1 [Nile Red]
fluorescence intensity of the raw image [1]: lower than those of PK and PC
imaging performance for fluorescence observation (rank) [1]: followed by PK, Nile Red, and POLARIC in this order
shift of the fluorescence wavelength due to solvatochromism ([2]; Test Example 3 stained tissue): relatively small
imaging performance for fluorescence observation (rank) [2]: followed by PK, POLARIC, and Nile Red in this order

CC(=O)c1ccc2ccc3c(N4CCCCC4)ccc4ccc1c2c43 [PK, 1-Acetyl-6-piperidylpyrene]
imaging performance for fluorescence observation (rank) [1]: followed by PK, Nile Red, and POLARIC in this order
staining of rectal tumor lesion [3]: cytoplasmic staining property by PK staining was high
staining of normal rectal mucosal epithelium [4]: cell membranes were positive for PK staining, cytoplasm was poorly stained
distinction of tumor cells from normal cells [5, 10]: tumor cells can be distinguished from normal cells
fluorescence signal in the parts where the tumor cells (Paget cells) exist [5, 10]: the fluorescence wavelength shifted and the signal level decreased
distribution of the dye in cells ([5]; thin sliced section): inserted into cell membranes
imaging performance for fluorescence observation (rank) [2]: followed by PK, POLARIC, and Nile Red in this order
fluorescence signal in malignant melanoma cells [6]: not observed
detection of tumor cells (Paget cells) ([7]; cleared tissue 500 μm thick, LUCID method, 495 nm): successfully detected even when they were scattered one by one
signals in normal cells of the epidermis, dermis, and hair follicle ([7]; normal cells within the observed lesion tissues of Test Example 2): significantly observed in all of these cells
absorption maximum wavelength ([8]; 20 mM phosphate buffer (pH 7.4) at room temperature): 407 nm
fluorescence maximum wavelength λDMSO ([8]; DMSO): 558 nm
fluorescence maximum wavelength λMet ([8]; methanol): 593 nm
fluorescence maximum wavelength λHep ([8]; n-heptane): 474 nm
fluorescence maximum wavelength ΔTol ([8]; toluene): 503 nm

CCCC(=O)/C=C/c1ccc2ccc3c(N4CCCCC4)ccc4ccc1c2c43 [compound A, (E)-1-(6-(piperidin-1-yl)pyren-1-yl)hexa-1-en-3-one]
imaging performance for fluorescence observation (rank) [1]: best performance
absorption maximum wavelength [9]: 421 nm
fluorescence maximum wavelength [9]: 621 nm
imaging performance for fluorescence observation (rank) [2]: best performance
